Data set [1] has as its target T1, rat amylin receptor (calcitonin receptor co-expressed with receptor activity modifying protein, RAMP3) (Rat AMYR3) (Rattus norvegicus, UniProt P32214+Q9JJ73).
T1 construct: expressed in transfected cells
T1 sequence (P32214 25-516): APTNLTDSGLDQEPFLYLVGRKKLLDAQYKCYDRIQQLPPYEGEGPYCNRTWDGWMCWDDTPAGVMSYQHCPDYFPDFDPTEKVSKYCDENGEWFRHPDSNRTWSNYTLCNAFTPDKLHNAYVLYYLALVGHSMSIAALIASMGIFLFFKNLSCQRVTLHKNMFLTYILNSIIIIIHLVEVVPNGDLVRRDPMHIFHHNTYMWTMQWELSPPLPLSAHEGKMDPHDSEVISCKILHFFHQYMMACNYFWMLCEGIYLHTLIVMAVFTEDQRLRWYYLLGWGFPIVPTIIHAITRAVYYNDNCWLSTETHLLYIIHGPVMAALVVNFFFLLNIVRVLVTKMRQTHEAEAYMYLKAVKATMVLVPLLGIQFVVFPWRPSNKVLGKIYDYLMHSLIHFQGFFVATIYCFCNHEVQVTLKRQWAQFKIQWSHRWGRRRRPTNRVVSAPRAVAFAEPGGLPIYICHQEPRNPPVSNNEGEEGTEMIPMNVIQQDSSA
T1 sequence (Q9JJ73 23-147 partner): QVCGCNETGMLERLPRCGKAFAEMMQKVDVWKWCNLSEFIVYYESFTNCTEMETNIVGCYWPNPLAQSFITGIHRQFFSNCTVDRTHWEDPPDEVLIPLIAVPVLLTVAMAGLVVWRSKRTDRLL
The experiment in a line: cAMP production in HEK cells with stable recombinant expression of rat amylin receptor (Rat AMYR3). The data set is classed as cell-based. The following applies: assay buffer with 0.1% BSA. The method, boiled down:
(§1)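 EC50 values come from 4-parameter logistic fits of HTRF cAMP signal, normalised to maximal calcitonin or amylin effect. Peptides were tested in duplicate for 30 min at RT in IBMX-containing (0.5 mM) BSA/HEPES buffer pH 7.4 on stable 1321N1 (human CTR, AMYR3) or HEK (rat CTR, AMYR3) lines.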
(Changes in cAMP serve as a functional read-out for many G protein-coupled receptors.)

Another data set is described as follows: in vivo. The following applies: male, Sprague-Dawley, rat, 20 nmol/kg.
The target in data set [2] is T2, rat calcitonin receptor (rat CTR) (Rattus norvegicus, UniProt P32214).
T2 construct: expressed in transfected cells
T2 sequence (P32214 25-516): T1 sequence (P32214 25-516)
The experiment in a line: cAMP production in HEK cells with stable recombinant expression of rat calcitonin receptor (rat CTR). The following applies: assay buffer with 0.1% BSA. The data set is classed as cell-based. The method, boiled down:
as §1

Each structure is given as a SMILES string. Numbered stars: 1 amine (or outer) side, 2 acyl side, 3 side chain; on linkers, the order of the positions; unused ones are H or OH. Bridge positions count the residues as written; N and C are the ends. Square brackets hold non-standard residues; d marks the D form. Side chains are listed from the residue outwards. Peptide text beside a SMILES is read from it. * marks the point of attachment. C20 diacid = O=C(O)CCCCCCCCCCCCCCCCCCC(=O)*; C18 diacid = O=C(O)CCCCCCCCCCCCCCCCC(=O)*; γGlu = O=C(O)[C@H](CCC(=O)[*:2])N[*:1]; αMeF = C[C@](N)(Cc1ccccc1)C(=O)O; Dab = NCC[C@H](N)C(=O)O; AEEA = NCCOCCOCC(=O)O; Aib = CC(C)(N)C(=O)O

As usually defined, the EC50 is the midpoint of the concentration-response curve. As usually defined, the half-life is the time in which the quantity being followed falls by half. Read a low half-life as rapid decline.

For `CC[C@H](C)[C@H](NC(=O)[C@@H]1CCCN1C(=O)CNC(=O)[C@H](Cc1ccccc1)NC(=O)[C@H](CC(N)=O)NC(=O)[C@H](CC(N)=O)NC(=O)[C@H](CO)NC(=O)[C@H](CO)NC(=O)[C@H](Cc1c[nH]cn1)NC(=O)[C@@H](NC(=O)[C@H](CC(C)C)NC(=O)[C@H](Cc1ccccc1)NC(=O)[C@H](CC(N)=O)NC(=O)[C@H](C)NC(=O)[C@H](CC(C)C)NC(=O)[C@H](CCCNC(=N)N)NC(=O)[C@H](CCC(N)=O)NC(=O)[C@@H](NC(=O)[C@H](C)NC(=O)[C@@H]1CSSC[C@H](NC(=O)[C@H](CCCCN)NC(=O)CC[C@H](NC(=O)CCCCCCCCCCCCCCCCC(=O)O)C(=O)O)C(=O)N[C@@H](CC(N)=O)C(=O)N[C@@H]([C@@H](C)O)C(=O)N[C@@H](C)C(=O)N[C@@H]([C@@H](C)O)C(=O)N1)[C@@H](C)O)C(C)C)C(=O)N[C@@H](CC(C)C)C(=O)N1CCC[C@H]1C(=O)N1CCC[C@H]1C(=O)N[C@H](C(=O)N[C@@H](CC(N)=O)C(=O)N[C@H](C(=O)NCC(=O)N[C@@H](CO)C(=O)N[C@@H](CC(N)=O)C(=O)N[C@H](C(=O)N[C@@H](Cc1ccc(O)cc1)C(N)=O)[C@@H](C)O)C(C)C)[C@@H](C)O` [Peptide 3] ({C18 diacid-γGlu}-KCNTATCATQRLANFLVHSSNNFGPILPPTNVGSNTY-NH2; disulfide 2-7), the EC50 in data set [1] was determined as 2.9 pM; in data set [2], 186 pM. For the same molecule, the half-life in the data set “in vivo” (iv) is 14 h.
With `CC[C@H](C)[C@H](NC(=O)[C@H](C)NC(=O)[C@@H]1CCCN1C(=O)[C@H](Cc1ccccc1)NC(=O)[C@H](CC(N)=O)NC(=O)C(C)(C)NC(=O)[C@H](CO)NC(=O)[C@H](CO)NC(=O)[C@H](Cc1c[nH]cn1)NC(=O)[C@@H](NC(=O)[C@H](CC(C)C)NC(=O)[C@H](Cc1ccccc1)NC(=O)[C@H](CC(N)=O)NC(=O)[C@H](C)NC(=O)[C@H](CC(C)C)NC(=O)[C@H](CCCNC(=N)N)NC(=O)[C@H](CCC(N)=O)NC(=O)[C@@H](NC(=O)[C@H](C)NC(=O)[C@@H]1CSSC[C@H](NC(=O)[C@@H](N)CCCCNC(=O)CC[C@H](NC(=O)CC[C@H](NC(=O)CCCCCCCCCCCCCCCCC(=O)O)C(=O)O)C(=O)O)C(=O)N[C@@H](CC(N)=O)C(=O)N[C@@H]([C@@H](C)O)C(=O)N[C@@H](C)C(=O)N[C@@H]([C@@H](C)O)C(=O)N1)[C@@H](C)O)C(C)C)C(=O)N[C@@H](CC(C)C)C(=O)N[C@@H](CO)C(=O)N1CCC[C@H]1C(=O)N[C@H](C(=O)N[C@@H](CC(N)=O)C(=O)N[C@H](C(=O)NCC(=O)N[C@@H](CO)C(=O)N[C@@H](CC(N)=O)C(=O)N[C@H](C(=O)N[C@@H](Cc1ccc(O)cc1)C(N)=O)[C@@H](C)O)C(C)C)[C@@H](C)O` [Peptide 9, K(γE-γE-C18diacid)[CNTATC]ATQRLANFLVHSS(Aib)NFPAILSPTNVGSNTY-amide] (H-K([γGlu-γGlu-C18 diacid])CNTATCATQRLANFLVHSS[Aib]NFPAILSPTNVGSNTY-NH2; disulfide 2-7), the values for the EC50 in data set [1] and in data set [2] were 17.8 pM and 9720 pM, respectively. In addition, the half-life in “in vivo” (iv) was 5.9 h; in the data set “in vivo” (sc), 7.8 h.
For `CC[C@H](C)[C@H](NC(=O)[C@@H]1CCCN1C(=O)CNC(=O)[C@H](Cc1ccccc1)NC(=O)[C@H](CC(N)=O)NC(=O)[C@H](CC(N)=O)NC(=O)[C@H](CO)NC(=O)[C@H](CO)NC(=O)[C@H](Cc1c[nH]cn1)NC(=O)[C@@H](NC(=O)[C@H](CC(C)C)NC(=O)[C@H](Cc1ccccc1)NC(=O)[C@H](CC(N)=O)NC(=O)[C@H](C)NC(=O)[C@H](CC(C)C)NC(=O)[C@H](CCCNC(=N)N)NC(=O)[C@H](CCC(N)=O)NC(=O)[C@@H](NC(=O)[C@H](C)NC(=O)[C@@H]1CSSC[C@H](NC(=O)[C@H](CCCCN)NC(=O)COCCOCCNC(=O)COCCOCCNC(=O)CC[C@H](NC(=O)CCCCCCCCCCCCCCCCCCC(=O)O)C(=O)O)C(=O)N[C@@H](CC(N)=O)C(=O)N[C@@H]([C@@H](C)O)C(=O)N[C@@H](C)C(=O)N[C@@H]([C@@H](C)O)C(=O)N1)[C@@H](C)O)C(C)C)C(=O)N[C@@H](CC(C)C)C(=O)N1CCC[C@H]1C(=O)N1CCC[C@H]1C(=O)N[C@H](C(=O)N[C@@H](CC(N)=O)C(=O)N[C@H](C(=O)NCC(=O)N[C@@H](CO)C(=O)N[C@@H](CC(N)=O)C(=O)N[C@H](C(=O)N[C@@H](Cc1ccc(O)cc1)C(N)=O)[C@@H](C)O)C(C)C)[C@@H](C)O` [Peptide 113] ({C20 diacid-γGlu-AEEA-AEEA}-KCNTATCATQRLANFLVHSSNNFGPILPPTNVGSNTY-NH2; disulfide 2-7), the EC50 worked out at 32.6 pM in data set [1] and 10400 pM in data set [2]. The values for the half-life in “in vivo” (iv) and in the data set “in vivo” (sc) were 11.2 h and 18.2 h, respectively.
Consider `CC[C@H](C)[C@H](NC(=O)[C@H](C)NC(=O)[C@@H]1CCCN1C(=O)[C@H](Cc1ccccc1)NC(=O)[C@H](CC(N)=O)NC(=O)[C@H](CCN)NC(=O)[C@H](CO)NC(=O)[C@H](CO)NC(=O)[C@H](Cc1c[nH]cn1)NC(=O)[C@@H](NC(=O)[C@H](CC(C)C)NC(=O)[C@H](Cc1ccccc1)NC(=O)[C@H](CC(N)=O)NC(=O)[C@H](C)NC(=O)[C@H](CC(C)C)NC(=O)[C@H](CCCNC(=N)N)NC(=O)[C@H](CCC(N)=O)NC(=O)[C@@H](NC(=O)[C@H](C)NC(=O)[C@@H]1CSSC[C@H](NC(=O)[C@@H](N)CCCCNC(=O)CC[C@H](NC(=O)CC[C@H](NC(=O)CCCCCCCCCCCCCCCCC(=O)O)C(=O)O)C(=O)O)C(=O)N[C@@H](CC(N)=O)C(=O)N[C@@H]([C@@H](C)O)C(=O)N[C@@H](C)C(=O)N[C@@H]([C@@H](C)O)C(=O)N1)[C@@H](C)O)C(C)C)C(=O)N[C@@H](CC(C)C)C(=O)N[C@@H](CO)C(=O)N1CCC[C@H]1C(=O)N[C@H](C(=O)N[C@@H](CC(N)=O)C(=O)N[C@H](C(=O)NCC(=O)N[C@@H](CO)C(=O)N[C@@H](CC(N)=O)C(=O)N[C@H](C(=O)N[C@@H](Cc1ccc(O)cc1)C(N)=O)[C@@H](C)O)C(C)C)[C@@H](C)O` [Peptide 8, K(γE-γE-C18diacid)[CNTATC]ATQRLANFLVHSS(Dab)NFPAILSPTNVGSNTY-amide] (H-K([γGlu-γGlu-C18 diacid])CNTATCATQRLANFLVHSS[Dab]NFPAILSPTNVGSNTY-NH2; disulfide 2-7), for which the EC50 is 25.6 pM in data set [1] and 19900 pM in data set [2]. Also, the figures for the half-life in the data set “in vivo” (iv) and in “in vivo” (sc) were 4.2 h and 6.2 h, respectively.
In the same order, the values of `CC[C@H](C)[C@H](NC(=O)[C@@H]1CCCN1C(=O)CNC(=O)[C@](C)(Cc1ccccc1)NC(=O)[C@H](CC(N)=O)NC(=O)[C@H](CC(N)=O)NC(=O)[C@H](CO)NC(=O)[C@H](CO)NC(=O)[C@H](Cc1c[nH]cn1)NC(=O)[C@@H](NC(=O)[C@H](CC(C)C)NC(=O)[C@H](Cc1ccccc1)NC(=O)[C@H](CC(N)=O)NC(=O)[C@H](C)NC(=O)[C@H](CC(C)C)NC(=O)[C@H](CCCNC(=N)N)NC(=O)[C@H](CCC(N)=O)NC(=O)[C@@H](NC(=O)[C@H](C)NC(=O)[C@@H]1CSSC[C@H](NC(=O)[C@@H](N)CCCCNC(=O)CC[C@H](NC(=O)CC[C@H](NC(=O)CCCCCCCCCCCCCCCCC(=O)O)C(=O)O)C(=O)O)C(=O)N[C@@H](CC(N)=O)C(=O)N[C@@H]([C@@H](C)O)C(=O)N[C@@H](C)C(=O)N[C@@H]([C@@H](C)O)C(=O)N1)[C@@H](C)O)C(C)C)C(=O)N[C@@H](CC(C)C)C(=O)N1CCC[C@H]1C(=O)N1CCC[C@H]1C(=O)N[C@H](C(=O)N[C@@H](CCCNC(=N)N)C(=O)N[C@H](C(=O)NCC(=O)N[C@@H](CO)C(=O)N[C@@H](CC(N)=O)C(=O)N[C@H](C(=O)N[C@@H](Cc1ccc(O)cc1)C(N)=O)[C@@H](C)O)C(C)C)[C@@H](C)O` [Peptide 24, K(γE-γE-C18diacid)[CNTATC]ATQRLANFLVHSSNN(αMePhe)GPILPPTRVGSNTY-amide] (H-K([γGlu-γGlu-C18 diacid])CNTATCATQRLANFLVHSSNN[αMeF]GPILPPTRVGSNTY-NH2; disulfide 2-7; N-terminus assumed) are 17.7 pM, 755 pM, 9.4 h and 10.5 h.

Values taken from patent publication US20240067693A1, “POLYPEPTIDES AND USES THEREOF” (MEDIMMUNE LIMITED, priority 2020, published 2024).
